Reference: ChEMBL document CHEMBL5352470, “RS6077 induces mitotic arrest and selectively activates cell death in human cancer cell lines and in a lymphoma tumor in vivo” (Eur J Med Chem, 2023)
pIC50: −log10 of the molar value.

Tests used:
TERT-RPE1 [1] = assay: Induction of cell cycle arrest in human TERT-RPE1 cells assessed as accumulation of cells at S phase at 2500 nM incubated for 72 hrs by annexin V-FITC and PI staining based flow cytometry analysis; assay type: functional
[2] = Toxicity in human T cells derived from human PBMC assessed as early apoptotic cells at 1 uM measured for 72 hrs by annexin V-FITC and PI staining based flow cytometry analysis (reference value: 9.70 to […]); details: t-cell
AHH-1 [3] = assay: Induction of cell cycle arrest in human AHH-1 cells assessed as accumulation of cells at S phase at 100 nM incubated for 72 hrs by annexin V-FITC and PI staining based flow cytometry analysis; assay type: functional
TMD8 [4] = assay: Antitumor activity against human TMD8 cells xenografted in NOD/SCID mouse assessed as reduction in tumor volume at 100 mg/kg, po administered for 5 days and measured on day 9; assay type: functional; details: time 9 day
[5] = Toxicity in human T cells derived from human PBMC assessed as necrotic cells at 1 uM measured for 48 hrs by annexin V-FITC and PI staining based flow cytometry analysis (reference value: 0.31 to 0.48 %); details: t-cell
TMD8 [6] = assay: Antitumor activity against human TMD8 cells xenografted in NOD/SCID mouse assessed as reduction in tumor volume at 100 mg/kg, po administered for 5 days and measured on day 6; assay type: functional; details: time 6 day
HeLa [7] = assay: Induction of cell cycle arrest in human HeLa cells assessed as accumulation of cells at G2/M phase at 1000 nM incubated for 72 hrs by annexin V-FITC and PI staining based flow cytometry analysis; assay type: functional
[8] = Toxicity in human T cells derived from human PBMC assessed as early apoptotic cells at 0.1 uM measured for 72 hrs by annexin V-FITC and PI staining based flow cytometry analysis (reference value: 9.70 to […]); details: t-cell
[9] = Metabolic stability in mouse liver microsome assessed as intrinsic clearance measured upto 60 mins by LC-MS/MS analysis; assay type: ADME; details: liver microsomes, read-out: CLH
[10] = Toxicity in human T cells derived from human PBMC assessed as late apoptotic cells at 2.5 uM measured for 72 hrs by annexin V-FITC and PI staining based flow cytometry analysis (reference value: 11.5 to 17.6%); details: t-cell
HeLa [11] = assay: Induction of cell cycle arrest in human HeLa cells assessed as accumulation of cells at G1 phase at 1000 nM incubated for 72 hrs by annexin V-FITC and PI staining based flow cytometry analysis; assay type: functional
TERT-RPE1 [12] = assay: Induction of cell cycle arrest in human TERT-RPE1 cells assessed as accumulation of cells at G2/M phase at 2500 nM incubated for 72 hrs by annexin V-FITC and PI staining based flow cytometry analysis; assay type: functional
[13] = Toxicity in human T cells derived from human PBMC assessed as late apoptotic cells at 0.1 uM measured for 48 hrs by annexin V-FITC and PI staining based flow cytometry analysis (reference value: 13.5 to […] %); details: t-cell
AHH-1 [14] = assay: Induction of cell cycle arrest in human AHH-1 cells assessed as accumulation of cells at G1 phase at 1000 nM incubated for 72 hrs by annexin V-FITC and PI staining based flow cytometry analysis; assay type: functional
TMD8 [15] = assay: Antitumor activity against human TMD8 cells xenografted in NOD/SCID mouse assessed as reduction in tumor volume at 100 mg/kg, po administered for 5 days and measured on day 13; assay type: functional; details: time 13 day
[16] = Toxicity in human T cells derived from human PBMC assessed as late apoptotic cells at 1 uM measured for 72 hrs by annexin V-FITC and PI staining based flow cytometry analysis (reference value: 11.5 to 17.6%); details: t-cell
AHH-1 [17] = assay: Induction of apoptosis in human AHH-1 cells at 100 nM measured after 72 hrs by annexin V-FITC and PI staining based flow cytometry analysis; assay type: functional
TERT-RPE1 [18] = assay: Induction of cell cycle arrest in human TERT-RPE1 cells assessed as accumulation of cells at G1 phase at 100 nM incubated for 72 hrs by annexin V-FITC and PI staining based flow cytometry analysis; assay type: functional
HeLa [19] = assay: Induction of cell cycle arrest in human HeLa cells assessed as accumulation of cells at S phase at 1000 nM incubated for 72 hrs by annexin V-FITC and PI staining based flow cytometry analysis; assay type: functional
HeLa [20] = assay: Induction of cell cycle arrest in human HeLa cells assessed as accumulation of cells at G1 phase at 100 nM incubated for 72 hrs by annexin V-FITC and PI staining based flow cytometry analysis; assay type: functional
[21] = Toxicity in human T cells derived from human PBMC assessed as viable cells at 2.5 uM measured for 48 hrs by annexin V-FITC and PI staining based flow cytometry analysis (reference value: 77.5 to 79.5 %); assay type: cell-based, T-cell; details: read-out: Activity
[22] = Toxicity in human T cells derived from human PBMC assessed as late apoptotic cells at 0.1 uM measured for 72 hrs by annexin V-FITC and PI staining based flow cytometry analysis (reference value: 11.5 to 17.6%); details: t-cell
[23] = Toxicity in human T cells derived from human PBMC assessed as viable cells at 1 uM measured for 72 hrs by annexin V-FITC and PI staining based flow cytometry analysis (reference value: 66.5 to 77.5 %); assay type: cell-based, T-cell; details: read-out: Activity
TERT-RPE1 [24] = assay: Induction of cell cycle arrest in human TERT-RPE1 cells assessed as accumulation of cells at G2/M phase at 100 nM incubated for 72 hrs by annexin V-FITC and PI staining based flow cytometry analysis; assay type: functional
[25] = Toxicity in human T cells derived from human PBMC assessed as viable cells at 0.1 uM measured for 48 hrs by annexin V-FITC and PI staining based flow cytometry analysis (reference value: 77.5 to 79.5 %); assay type: cell-based, T-cell; details: read-out: Activity
TERT-RPE1 [26] = assay: Induction of cell cycle arrest in human TERT-RPE1 cells assessed as accumulation of cells at G1 phase at 1000 nM incubated for 72 hrs by annexin V-FITC and PI staining based flow cytometry analysis; assay type: functional
[27] = Toxicity in human T cells derived from human PBMC assessed as early apoptotic cells at 1 uM measured for 48 hrs by annexin V-FITC and PI staining based flow cytometry analysis (reference value: 6.75 to 8.22 %); details: t-cell
HeLa [28] = assay: Antiproliferative activity against human HeLa cells assessed as inhibition of cell growth measured for 48 hrs by MTT assay; assay type: functional, cell-based
AHH-1 [29] = assay: Induction of cell cycle arrest in human AHH-1 cells assessed as accumulation of cells at S phase at 1000 nM incubated for 72 hrs by annexin V-FITC and PI staining based flow cytometry analysis; assay type: functional
[30] = Toxicity in human T cells derived from human PBMC assessed as necrotic cells at 2.5 uM measured for 72 hrs by annexin V-FITC and PI staining based flow cytometry analysis (reference value: 0.48 to 0.56 %); details: t-cell
[31] = Toxicity in human T cells derived from human PBMC assessed as early apoptotic cells at 2.5 uM measured for 72 hrs by annexin V-FITC and PI staining based flow cytometry analysis (reference value: 9.70 to […]); details: t-cell
TERT-RPE1 [32] = assay: Induction of cell cycle arrest in human TERT-RPE1 cells assessed as accumulation of cells at G1 phase at 2500 nM incubated for 72 hrs by annexin V-FITC and PI staining based flow cytometry analysis; assay type: functional

COc1cc(C(=O)c2ccn(-c3ncnc4[nH]ccc34)c2)cc(OC)c1OC
Activity (TERT-RPE1 [1]): 7.3% | Activity [2]: 11.6% | Activity (AHH-1 [3]): 27.2% | Activity (TMD8 [4]): 402 mm3 | Activity [5]: 0.24% | Activity (TMD8 [6]): 407 mm3 | Activity (HeLa [7]): 33.8% | Activity [8]: 9.7% | microsomal CLint [9]: 96 µL/min/mg | Activity [10]: 12.7% | Activity (HeLa [11]): 22.2% | Activity (TERT-RPE1 [12]): 72.7% | Activity [13]: 13.3% | Activity (AHH-1 [14]): 9.5% | Activity (TMD8 [15]): 354 mm3 | Activity [16]: 12% | Activity (AHH-1 [17]): 60% | Activity (TERT-RPE1 [18]): 13.9% | Activity (HeLa [19]): 44.1% | Activity (HeLa [20]): 28.5% | viability at 48 h, 2.5 µM [21]: 72.7% | Activity [22]: 11.8% | viability at 72 h, 1 µM [23]: 64.7% | Activity (TERT-RPE1 [24]): 83% | viability at 48 h, 0.1 µM [25]: 75.4% | Activity (TERT-RPE1 [26]): 13.3% | Activity [27]: 6.49% | pIC50 (HeLa [28]): 7.45 | Activity (AHH-1 [29]): 18.4% | Activity [30]: 0.14% | Activity [31]: 10.3% | Activity (TERT-RPE1 [32]): 17.6%
